As usually defined, the inhibition is the share of the control response that was lost under treatment.

Numbered stars: 1 amine (or outer) side, 2 acyl side, 3 side chain; on linkers, the order of the positions; unused ones are H or OH. Square brackets hold non-standard residues; d marks the D form. Peptide text beside a SMILES is read from it. * marks the point of attachment. ξ: configuration not given here. β3hPhe(2R-OH) = O=C([C@H](O)[C@H](Cc1ccccc1)N[*:1])[*:2]; X2 = O=C([C@H](O)[C@H](CSc1ccccc1)N[*:1])[*:2]; Benzoyl(3-COOH) = O=C(O)c1cccc(C(=O)*)c1; Benzoyl(4-COOH) = O=C(O)c1ccc(C(=O)*)cc1; Tetrazole5carbonyl = O=C(c1nn[nH]n1)*; Oxalyl = O=C(C(=O)[*:2])[*:1]; Tle = CC(C)(C)[C@H](N)C(=O)O; 3Abz = Nc1cccc(C(=O)O)c1; 4Abz = Nc1ccc(C(=O)O)cc1; 2Abz = Nc1ccccc1C(=O)O; Dap = NC[C@H](N)C(=O)O; ξPip = O=C(O)C1CCCCN1; Aib = CC(C)(N)C(=O)O

The test deals with T1, recombinant human BACE-1 (rhBACE-1) (Homo sapiens, UniProt P56817).
T1 construct: expressed as only an extracellular region (amino acid 1-460 residues) of recombinant human β-secretase; His tag (C); purchased R&D systems (Minneapolis, Minn.); host or cells: murine myeloma cell line NS0
T1 sequence (P56817 22-460 limits assumed): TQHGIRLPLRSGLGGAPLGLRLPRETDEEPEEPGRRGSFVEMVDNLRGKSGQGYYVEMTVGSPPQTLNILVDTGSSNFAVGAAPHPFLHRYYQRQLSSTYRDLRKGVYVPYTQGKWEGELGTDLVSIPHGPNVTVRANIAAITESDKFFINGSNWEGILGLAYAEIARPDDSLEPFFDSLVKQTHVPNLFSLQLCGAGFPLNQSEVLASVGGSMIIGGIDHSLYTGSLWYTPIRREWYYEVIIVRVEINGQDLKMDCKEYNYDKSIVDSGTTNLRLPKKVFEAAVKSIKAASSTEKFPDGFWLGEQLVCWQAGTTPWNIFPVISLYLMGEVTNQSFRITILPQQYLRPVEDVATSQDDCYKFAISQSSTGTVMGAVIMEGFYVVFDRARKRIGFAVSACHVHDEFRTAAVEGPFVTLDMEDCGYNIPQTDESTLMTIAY
The test can be described thus: BACE1 inhibitory activity, reverse phase HPLC quantitation of N-terminal fragment of fluorogenic substrate. Type of test: biochemical. The settings on record: 1 μL of inhibitor solution in DMSO (100 μM) in 50 μL reaction; MES buffer pH 5.0; 37° C., 60 minutes. An excerpt: Experiment Regarding Measurement of BACE1 Inhibitory Activity
Enzyme Used in Measurement
As an enzyme having β-secretase activity, recombinant human BACE-1 (rhBACE-1) purchased from R&D systems (Minneapolis, Minn.) was used. rhBACE-1 is expressed as only an extracellular region (amino acid 1-460 residues) of recombinant human β-secretase, with a His tag at its carboxyl terminal in murine myeloma cell line, NS0. Purified secreted rhBACE1 is a mixture of a pro entity (about 75 kDa) and a mature entity (about 72 kDa).
Assessment of Enzyme Inhibitory Activity
Enzyme inhibitory activity of an inhibitor was assessed by quantitating an N-terminal fragment produced aftercleaving the substrate with BACE1 by reverse HPLC using (7-methoxycoumarin-4-yl)acetyl-[…]2,4-dinitrophenyl)-Arg-Arg-NH2 purchased from Peptide Institute (Osaka, Japan) as a substrate for BACE1. To 40 μL of 62.5 mM 2-(N-morpholino)ethansulfonic acid (MES)-CH3COOH—NaOH buffer (pH 5.0), were added 1 μL of a solution of an inhibitor diluted with DMSO (100 μM), 4 μL of rhBACE-1 (6.25 ng/μL), and 5 μL of an aqueous solution (50% DMSO) of 250 μM substrate (7-methoxycoumarin-4-yl)acetyl-[…]2,4-dinitrophenyl)-Arg-Arg-NH2 to initiate an enzyme reaction. After incubation at 37° C. for 60 minutes, 20 μL of 20% trichloroacetic acid was added to stop the reaction. And, inhibition % was calculated by measuring a fluorescent intensity of the N-terminal fragment (Ex, 328 nm; Em, 393 nm) using reverse phase HPLC (linear gradient of MeCN in aqueous TFA; flow rate, 1.0 mL/min).
BACE1 Inhibitory Activity
Enzyme inhibitory activity of an inhibitor was assessed by quantitating a N-terminal fragment produced after cleavage of a substrate with BACE1 by reverse phase HPLC using (7-methoxycoumarin-4-yl)acetyl-[…]2,4-dinitrophenyl)-Arg-Arg-NH2 purchased from Peptide Institute (Osaka, Japan) as a substrate for BACE1. Recombinant human BACE-1 purchased from R&D systems (Minneapolis, Minn.) was used. To 40 μL of 62.5 mM 2-(N-morpholino)ethansulfonic acid (MES)-CH3COOH—NaOH buffer (pH 5.0), were added 1 μL of a solution of an inhibitor diluted with DMSO (100 μM), 4 μL of BACE1 (6.25 ng/μL), and 5 μL of an aqueous solution (50% DMSO) of 250 μM substrate (7-methoxycoumarin-4-yl)acetyl-[…]2,4-dinitrophenyl)-Arg-Arg-NH2 to initiate an enzyme reaction. After incubation at 37° C. for 60 minutes, 20 μL of 20% trichloroacetic acid was added to stop a reaction. Inhibition % was calculated by measuring a fluorescent intensity of the N-terminal fragment (Ex, 328 nm; Em, 393 nm) using reverse phase HPLC (linear gradient of MeCN in aqueous TFA; flow rate, 1.0 mL/min).
As for `CC(C)C[C@H](NC(=O)[C@@H](NC(=O)[C@@H](N)CCC(=O)O)C(C)C)C(=O)N[C@@H](Cc1ccccc1)[C@@H](O)C(=O)N[C@@H](CC(=O)O)C(=O)N[C@@H](C)C(=O)N1CCCCC1C(=O)O` (single isomer, unassigned) [Example 94], the inhibition at 2 µM stood at 61.8%.

Take `CC(C)C[C@H](NC(=O)[C@@H](NC(=O)[C@@H](N)CNC(=O)C(=O)O)C(C)C)C(=O)N[C@@H](Cc1ccccc1)[C@@H](O)C(=O)Nc1ccc(C(=O)O)cc1` [Example 68]: the inhibition at 100 µM (stock) worked out at 98.8%.

In the case of `CC(C)C[C@H](NC(=O)[C@@H](NC(=O)[C@@H](N)CNC(=O)C(=O)O)C(C)C)C(=O)N[C@@H](Cc1ccccc1)[C@@H](O)C(=O)Nc1cccc(C(=O)O)c1` [Example 69], the inhibition at 2 µM worked out at 98.4%.

As to `CC(C)C[C@H](NC(=O)[C@@H](NC(=O)[C@@H](N)CNC(=O)C(=O)O)C(C)C)C(=O)N[C@@H](Cc1ccccc1)[C@@H](O)C(=O)N[C@@H](CC(=O)O)C(=O)Nc1cccc(C(=O)O)c1` [Example 70] (H-[Dap](Oxalyl)VL[β3hPhe(2R-OH)]D[3Abz]-OH), the inhibition at 2 µM amounted to 98.3%.

For the compound `CC(C)C[C@H](NC(=O)[C@@H](NC(=O)[C@@H](N)CNC(=O)C(=O)O)C(C)C)C(=O)N[C@@H](Cc1ccccc1)[C@@H](O)C(=O)N[C@@H](CC(=O)O)C(=O)Nc1ccc(C(=O)O)cc1` [Example 71] (H-[Dap](Oxalyl)VL[β3hPhe(2R-OH)]D[4Abz]-OH), the inhibition at 2 µM was 97.9%.

Take `CCOC(=O)c1cccc(NC(=O)c2cccc(NC(=O)[C@H](O)[C@H](Cc3ccccc3)NC(=O)[C@H](CC(C)C)NC(=O)[C@@H](NC(=O)[C@@H](N)CCC(=O)O)C(C)C)c2)c1` [Example 72]: the inhibition at 2 µM came to 95%.

`CC(C)C[C@H](NC(=O)[C@@H](NC(=O)[C@@H](N)CNC(=O)c1nnn[nH]1)C(C)C)C(=O)N[C@@H](Cc1ccccc1)[C@@H](O)C(=O)N[C@@H](CC(=O)O)C(=O)N[C@@H](C)C(=O)N[C@@H](CCC(=O)O)C(=O)O` [Example 73] (H-[Dap](Tetrazole5carbonyl)VL[β3hPhe(2R-OH)]DAE-OH): the inhibition at 2 µM was determined as 93%.

Turning to `CC(C)C[C@H](NC(=O)[C@@H](NC(=O)[C@H](CN)NC(=O)C(=O)O)C(C)C)C(=O)N[C@@H](Cc1ccccc1)[C@@H](O)C(=O)Nc1ccc(C(=O)O)cc1` [Example 74], the inhibition at 100 µM (stock) was determined as 90.5%.

For the compound `CC(C)C[C@H](NC(=O)[C@@H](NC(=O)[C@@H](N)CCC(=O)O)C(C)C)C(=O)N[C@@H](Cc1ccccc1)[C@@H](O)C(=O)N[C@@H](CC(=O)O)C(=O)Nc1ccc(C(=O)O)cc1` [Example 76] (H-EVL[β3hPhe(2R-OH)]D[4Abz]-OH), the inhibition at 2 µM worked out at 89.5%.

As to `CC(C)C[C@H](NC(=O)[C@@H](NC(=O)[C@H](CN)NC(=O)C(=O)O)C(C)C)C(=O)N[C@@H](Cc1ccccc1)[C@@H](O)C(=O)Nc1cccc(C(=O)O)c1` [Example 77], the inhibition at 2 µM was determined as 87.9%.

With `CC(C)C[C@H](NC(=O)[C@@H](NC(=O)[C@@H](N)CCC(=O)O)C(C)C)C(=O)N[C@@H](Cc1ccccc1)[C@@H](O)C(=O)N[C@@H](CC(=O)O)C(=O)Nc1ccccc1C(=O)O` [Example 78] (H-EVL[β3hPhe(2R-OH)]D[2Abz]-OH), the inhibition at 100 µM (stock) was found to be 85.8%.

As for `CC(C)C[C@H](NC(=O)[C@@H](NC(=O)[C@@H](N)CCC(=O)O)C(C)C)C(=O)N[C@@H](Cc1ccccc1)[C@@H](O)C(=O)N[C@@H](CC(=O)O)C(=O)Nc1cccc(C(=O)O)c1` [Example 79] (H-EVL[β3hPhe(2R-OH)]D[3Abz]-OH), the inhibition at 2 µM was 85.3%.

For the compound `CC(C)C[C@H](NC(=O)[C@@H](NC(=O)[C@@H](N)CCC(=O)O)C(C)C)C(=O)N[C@@H](Cc1ccccc1)[C@@H](O)C(=O)N[C@@H](CC(=O)O)C(=O)N[C@@H](Cc1ccccc1)C(=O)N[C@@H](CCC(=O)O)C(=O)N[C@@H](Cc1ccccc1)C(=O)O` [Example 80] (H-EVL[β3hPhe(2R-OH)]DFEF-OH), the inhibition at 2 µM is 83.2%.

Regarding `CC(C)C[C@H](NC(=O)[C@@H](NC(=O)[C@@H](N)CNC(=O)c1ccc(C(=O)O)cc1)C(C)C)C(=O)N[C@@H](Cc1ccccc1)[C@@H](O)C(=O)N[C@@H](CC(=O)O)C(=O)N[C@@H](C)C(=O)N[C@@H](CCC(=O)O)C(=O)O` [Example 81] (H-[Dap](Benzoyl(4-COOH))VL[β3hPhe(2R-OH)]DAE-OH), the inhibition at 2 µM came out at 82.9%.

Take `CC(C)C[C@H](NC(=O)[C@@H](NC(=O)[C@@H](N)CCC(=O)O)C(C)C)C(=O)N[C@@H](CSc1ccccc1)[C@@H](O)C(=O)N[C@@H](CC(=O)O)C(=O)N[C@@H](C)C(=O)N[C@@H](CCC(=O)O)C(=O)N[C@@H](Cc1ccccc1)C(=O)O` [Example 82] (H-EVL[X2]DAEF-OH): the inhibition at 2 µM was 81.8%.

Consider `CC(C)C[C@H](NC(=O)[C@@H](NC(=O)[C@@H](N)CCC(=O)O)C(C)C)C(=O)N[C@@H](Cc1ccccc1)[C@@H](O)C(=O)Nc1ccc(Cl)c(C(=O)O)c1` [Example 83], for which the inhibition at 2 µM was found to be 80.1%.

Take `CC(C)C[C@H](NC(=O)[C@@H](NC(=O)[C@@H](N)CNC(=O)c1cccc(C(=O)O)c1)C(C)C)C(=O)N[C@@H](Cc1ccccc1)[C@@H](O)C(=O)N[C@@H](CC(=O)O)C(=O)N[C@@H](C)C(=O)N[C@@H](CCC(=O)O)C(=O)O` [Example 84] (H-[Dap](Benzoyl(3-COOH))VL[β3hPhe(2R-OH)]DAE-OH): the inhibition at 2 µM came to 79.1%.

For `CC(C)C[C@H](NC(=O)[C@@H](NC(=O)[C@H](CN)NC(=O)C(=O)O)C(C)C)C(=O)N[C@@H](Cc1ccccc1)[C@@H](O)C(=O)N[C@@H](CC(=O)O)C(=O)N[C@@H](C)C(=O)N[C@@H](CCC(=O)O)C(=O)O` [Example 85] (Oxalyl-[Dap]VL[β3hPhe(2R-OH)]DAE-OH), the inhibition at 2 µM was 75.2%.

For `CC(C)C[C@H](NC(=O)[C@@H](NC(=O)[C@@H](N)CCC(=O)O)C(C)C)C(=O)N[C@@H](Cc1ccccc1)[C@@H](O)C(=O)N[C@@H](CC(=O)O)C(=O)N[C@H](C(=O)N[C@@H](CCC(=O)O)C(=O)N[C@@H](Cc1ccccc1)C(=O)O)C(C)(C)C` [Example 86] (H-EVL[β3hPhe(2R-OH)]D[Tle]EF-OH), the inhibition at 2 µM is 75%.

In the case of `CC(C)C[C@H](NC(=O)[C@@H](NC(=O)[C@@H](N)CCC(=O)O)C(C)C)C(=O)N[C@@H](Cc1ccccc1)[C@@H](O)C(=O)N[C@@H](CC(=O)O)C(=O)N[C@@H](C)C(=O)Nc1ccccc1C(=O)O` [Example 87] (H-EVL[β3hPhe(2R-OH)]DA[2Abz]-OH), the inhibition at 100 µM (stock) came to 72.2%.

As to `CC(C)C[C@H](NC(=O)[C@@H](NC(=O)[C@@H](N)CCC(=O)O)C(C)C)C(=O)N[C@@H](Cc1ccccc1)[C@@H](O)C(=O)N[C@@H](CC(=O)O)C(=O)N1CCCCC1C(=O)O` (stereo partly drawn) [Example 88] (H-EVL[β3hPhe(2R-OH)]D[ξPip]-OH), the inhibition at 2 µM is 70.4%.

With `CC(C)C[C@H](NC(=O)[C@@H](NC(=O)[C@@H](N)CCC(=O)O)C(C)C)C(=O)N[C@@H](Cc1ccccc1)[C@@H](O)C(=O)Nc1ccc(CC(=O)O)cc1` [Example 89], the inhibition at 2 µM amounted to 69.8%.

Consider `CC(C)C[C@H](NC(=O)[C@@H](NC(=O)[C@@H](N)CCC(=O)O)C(C)C)C(=O)N[C@@H](CSc1ccccc1)[C@@H](O)C(=O)N[C@@H](CC(=O)O)C(=O)O` [Example 90] (H-EVL[X2]D-OH), for which the inhibition at 2 µM turned out to be 69%.

Take `CC(C)C[C@H](NC(=O)[C@@H](NC(=O)[C@@H](N)CCC(=O)O)C(C)C)C(=O)N[C@@H](Cc1ccccc1)[C@@H](O)C(=O)N[C@@H](CC(=O)O)C(=O)NC(C)(C)C(=O)N[C@@H](CCC(=O)O)C(=O)O` [Example 91] (H-EVL[β3hPhe(2R-OH)]D[Aib]E-OH): the inhibition at 2 µM was 68.9%.

Turning to `CC(C)C[C@H](NC(=O)[C@@H](NC(=O)[C@@H](N)CCC(=O)O)C(C)C)C(=O)N[C@@H](Cc1ccccc1)[C@@H](O)C(=O)N[C@@H](CC(=O)O)C(=O)N[C@@H](C)C(=O)Nc1cccc(C(=O)O)c1` [Example 92] (H-EVL[β3hPhe(2R-OH)]DA[3Abz]-OH), the inhibition at 2 µM came out at 65.4%.

The record behind these values is patent US7312188B2, “Peptide derivatives having β-secretase inhibitory activity” (priority 2003, dated 2007).
